# Measurements from PubChem BioAssay AID2823 (Broad Institute, 2010).
# The source made the active and inactive calls. How the calls were made is not given here.
# Molecular target: RanGTP-importin-beta complex (human Ran / KPNB1)
# Assay: Ran–importin-beta interaction inhibitors, confirmation, biochemical, FRET, CFP/YFP, cell-free homogeneous (AID 2823)
# Details: CFP-Ran/YFP-importin-beta FRET ratio
row,Compound,IC50
1,CC(=O)N1CCc2c(sc(NC(=O)CS(=O)(=O)c3ccc(F)cc3)c2C(N)=O)C1,> 50 µM (inactive)
2,O=C(Cn1nnc2ccccc21)N/N=C\c1cccs1,> 50 µM (inactive)
3,CCCc1cc(=O)oc2c(CN(CC)CC)c(O)c(Cl)cc12,43.4 µM
4,CN1CCN(c2cc(=O)n(-c3ccc(Cl)cc3)c(=O)[nH]2)CC1,> 50 µM (inactive)
5,Cc1ccc(S(=O)(=O)Nc2nc3ccccc3nc2NCc2ccco2)cc1,18.2 µM
6,CCS(=O)(=O)c1ccc(S(=O)(=O)CC)s1,> 50 µM (inactive)
7,Cc1ccc(OCC(=O)NCCNC(=O)c2ccc(C)nc2)cc1,> 50 µM (inactive)
8,Oc1c(CN2CCN(c3ccc(F)cc3)CC2)cc(Cl)c2cccnc12,> 50 µM (inactive)
9,CCCCn1c(NC(=O)c2ccc(Br)o2)c(S(=O)(=O)c2ccccc2)c2nc3ccccc3nc21,4.83 µM
10,Cc1sc(NC(=O)c2oc3ccccc3c2C)c(C#N)c1C,> 50 µM (inactive)
11,Cc1cc(Cl)ccc1C(=O)C1CCCN(C(=O)c2n[nH]c3c2CCCC3)C1 (stereo unspecified),> 50 µM (inactive)
12,O=c1cc(N2CCN(Cc3ccccc3)CC2)[nH]c(=O)n1-c1ccc(Br)cc1,> 50 µM (inactive)
13,Cc1nc(Nc2cnc(/C=C/c3cc(C(=O)Nc4cccc(C(F)(F)F)c4)ccc3C)cn2)cc(N2CCNCC2)n1,19.7 µM
14,COc1ccc(-c2nc(NC(=O)c3n[nH]c(=O)c4ccccc34)sc2C)cc1,> 50 µM (inactive)
15,CCc1c(C)c2cc(Cl)c(O)c(CN3CCCCC3)c2oc1=O,22.9 µM
16,COCC(C)OC(=O)c1c(N)n(CC(C)C)c2nc3ccccc3nc12 (stereo unspecified),28.5 µM
17,CCOC(=O)C/C(=N\Nc1ncnc2ccccc12)c1ccccc1,> 50 µM (inactive)
18,Cc1ccc(O)c(Nc2c3ccccc3nc3ccccc23)c1,48.8 µM
19,CCOC(=O)c1ccc(CNC(=O)CSc2nnc(-c3ccncc3)o2)cc1,> 50 µM (inactive)
20,CC(C)CN(Cc1c(O)ccc2ccccc12)CC(C)C,> 50 µM (inactive)
21,COc1ccc(N2C(=O)c3ccccc3NC2c2cccnc2)cc1 (stereo unspecified),> 50 µM (inactive)
22,COc1cc(NC(=O)C2CC2)c(OC)cc1NC(=O)c1ccco1,> 50 µM (inactive)
23,COc1ccc(C2NC(=S)NC3=C2CCCC3=C2SCCS2)cc1 (stereo unspecified),> 50 µM (inactive)
24,CCOC(=O)CNC(=O)C1CCCN(c2ncccn2)C1 (stereo unspecified),> 50 µM (inactive)
25,NC(=O)c1ccccc1NC(=O)/C=C/c1ccc(Cl)cc1,> 50 µM (inactive)
26,CN(C)c1oc(-c2cccs2)nc1C#N,> 50 µM (inactive)

row,Compound,IC50
1,O=C1/C(=C/c2cccs2)Sc2ccccc21,> 50 µM (inactive)
2,COc1ccc(/C=N/NC(=O)c2sc3nc(C)cc(C)c3c2N)cc1,21 µM
3,CCN1/C(=C/C=C/c2sc3ccccc3[n+]2CC)Sc2ccccc21,16.6 µM
4,CCCSc1nnc(-c2c[nH]c3ccccc23)n1CC,> 50 µM (inactive)
5,C=CCN1C(=O)/C(=C\c2ccc(OC(=O)c3ccco3)c(OC)c2)SC1=S,> 50 µM (inactive)
6,CC1=C(C(=O)OC(C)C)C(c2cccnc2)C2=C(CC(C)(C)CC2=O)N1 (stereo unspecified),20.5 µM
7,CC(C)CCN(CCC(C)C)CC(O)Cn1c2ccccc2c(=O)c2ccccc21 (stereo unspecified),6.71 µM
8,O=C(CSc1nnc(-c2ccc(F)cc2)o1)Nc1ccc(S(=O)(=O)N2CCCC2)cc1,> 50 µM (inactive)
9,COc1ccccc1C1C(C(N)=O)=C(C)Nc2ncnn21 (stereo unspecified),> 50 µM (inactive)
10,CCOC(=O)N1CCN(c2cc(=O)n(Cc3ccc(F)cc3)c(=O)[nH]2)CC1,> 50 µM (inactive)
11,Cc1nnc(Sc2nc3c(c(=O)n(C)c(=O)n3C)n2Cc2ccccc2Cl)s1,> 50 µM (inactive)
12,Cc1cc(CNC(=O)COc2ccc(F)cc2)c2ccccc2n1,> 50 µM (inactive)
13,CCOC(=O)C1CCN(C(=O)COC(=O)c2ccc3[nH]c4c(c3c2)CCCC4)CC1,> 50 µM (inactive)
14,Cc1sc2ncn(CC(=O)NCCCC(=O)N3CCN(Cc4ccc5c(c4)OCO5)CC3)c(=O)c2c1C,> 50 µM (inactive)
15,CCc1ccc(S(=O)(=O)Nc2ccc(-c3nc4cccnc4s3)cc2)s1,> 50 µM (inactive)
16,Cc1cc(C)c2c(N)c(C(=O)NN3CC(=O)N(c4ccccc4F)CC3=O)sc2n1,> 50 µM (inactive)
17,CCN(CC)C(=O)Oc1ccc2c(c1)O/C(=C\c1ccco1)C2=O,7.92 µM
18,CCc1c(C)c2cc(Cl)c(O)c(CN(CC)CC)c2oc1=O,22 µM
19,COc1ccc(CCn2c(C)nc3ccccc3c2=O)cc1OC,> 50 µM (inactive)
20,CC1(C)CC(=O)C=C(Nc2ccccc2F)C1,> 50 µM (inactive)
21,CC(=O)c1cc(C#N)c(N2CC(C)OC(C)C2)nc1C (stereo unspecified),> 50 µM (inactive)
22,CC(C)(C)Nc1nc(SCC(=O)Nc2ccccc2)nc(N2CCOCC2)n1,> 50 µM (inactive)
23,C/C(=C\C(=O)C(F)(F)F)Nc1ccc(C(F)(F)F)cc1,> 50 µM (inactive)
24,N#Cc1c2ncn(CC(=O)c3ccc(Br)cc3)c(=O)c2c2n1CCC2,> 50 µM (inactive)
25,CCOC(=O)c1ccccc1NC(=O)COC(=O)C(CCSC)NC(=O)COc1ccccc1 (stereo unspecified),> 50 µM (inactive)
26,C=C(C)Cn1c(SCC(=O)O)nnc1-c1ccc(OC)cc1,> 50 µM (inactive)

row,Compound,IC50
1,CCC1(C(=O)OC)NC(c2cccc(F)c2)C2C(=O)N(C)C(=O)C21 (stereo unspecified),> 50 µM (inactive)
2,COc1ccccc1C1CC(c2ccc(Cl)cc2)Nc2nc(N)nn21 (stereo unspecified),> 50 µM (inactive)
3,COC(=O)C1=CN(c2ccc(OC)cc2)C=C(C(=O)OC)C1c1cccc(F)c1,35.2 µM
4,Cc1ccc2[nH]c(=O)c(C(c3nnnn3Cc3ccccc3)N3CCc4ccccc43)cc2c1 (stereo unspecified),> 50 µM (inactive)
5,Cc1ccc(-c2nnn(CC(=O)N(c3ccccc3)C(C(=O)NCC3CCCO3)c3ccc(Cl)cc3)n2)cc1 (stereo unspecified),> 50 µM (inactive)
6,CC1(C)CC(=O)CC(=Nc2ccc3[nH]c(=O)[nH]c3c2)C1,> 50 µM (inactive)
7,C=CCn1c(SCC(=O)N2CCCCC2)nnc1-c1ccncc1,> 50 µM (inactive)
8,Cc1ccc2cc(C#N)c(N3CCCN(C(=O)C4CCCO4)CC3)nc2c1 (stereo unspecified),20.5 µM
9,O=C(c1ccco1)c1cc2c(ccc3ccccc32)oc1=O,25 µM
10,CCc1ccccc1NC(=O)/C(C#N)=C\c1ccc(Sc2ccccc2)o1,> 50 µM (inactive)
11,CCC(=O)N(CC(=O)Nc1sc(C)c(C)c1C(N)=O)C1CCCC1,> 50 µM (inactive)
12,N#Cc1cc(NCC2CCCO2)c([N+](=O)[O-])cc1C#N (stereo unspecified),> 50 µM (inactive)
13,CCOC(=O)c1c(NC(=O)Cc2ccccc2)sc2c1CCN(CC)C2,> 50 µM (inactive)
14,C=CCNC(=O)c1cccc(OC2CCN(CC(C)(C)C)CC2)c1,> 50 µM (inactive)
15,COc1ccccc1N=C(C)C1=C(O)CC(c2ccccc2)CC1=O (stereo unspecified),> 50 µM (inactive)
16,COc1ccc(Oc2nc3c(C)cccn3c(=O)c2/C=C(\C#N)C(N)=O)cc1,9.6 µM
17,CCOc1cc(NS(=O)(=O)c2ccc(NC(C)=O)cc2)c(OCC)cc1NC(=O)C(C)C,> 50 µM (inactive)
18,CCc1cc(=O)oc2c(CNCc3ccc(OC)cc3OC)c(O)c(Cl)cc12,14.4 µM
19,Cc1ccc(N2NC(=O)/C(=C\c3cc4c(cc3[N+](=O)[O-])OCO4)C2=O)cc1C,> 50 µM (inactive)
20,CC(C)(C)c1ccc(S(=O)(=O)NCC(=O)N2CCN(C(=O)c3ccco3)CC2)cc1,> 50 µM (inactive)
21,COc1cc(S(=O)(=O)NCCCN2CCOCC2)ccc1Cl,> 50 µM (inactive)
22,O=C(c1ccc(F)cc1)c1cc2ccc(O)cc2oc1=O,11.4 µM
23,O=C(CN1CCN(C/C=C/c2ccccc2)CC1)NC(=O)NC1CCCCC1,> 50 µM (inactive)
24,CCn1c(=O)cc(N2CCCCC2)[nH]c1=O,> 50 µM (inactive)
25,CCOC(=O)c1c(NC(=O)CN2CCCc3ccccc32)sc(C(C)=O)c1C,> 50 µM (inactive)
26,CCOC(=O)c1c(C)oc2cc(Br)c(OCC(N)=O)cc12,> 50 µM (inactive)

row,Compound,IC50
1,O=C(NNc1c2ccccc2nc2ccccc12)c1ccc(O)cc1O,> 50 µM (inactive)
2,CCN(CC)Cc1c(O)c(Cl)cc2c(C)c(C)c(=O)oc12,21.1 µM
3,COc1ccc(-c2cc(C(F)(F)F)n3nc(N)nc3n2)cc1,14.6 µM
4,Cc1nc2[nH]c(=O)c3c(n2n1)NC1=C(C(=O)CC(C)(C)C1)C3c1ccc(F)cc1 (stereo unspecified),2.73 µM
5,CC1(C)CC(=O)C/C(=N\NC(=O)Cc2ccccc2)C1,> 50 µM (inactive)
6,COc1ccc(OC)c(Nc2c3ccccc3nc3ccccc23)c1,> 50 µM (inactive)
7,Cc1ccc(CNC(=O)c2cccnc2)cc1,> 50 µM (inactive)
8,CC1(C)CC(=O)C=C(NNC(=O)C2CCCCC2)C1,> 50 µM (inactive)
9,CC(C)Sc1nnc(CNC(=O)C23CC4CC(CC(C4)C2)C3)n1C1CCCCC1,> 50 µM (inactive)
10,CCOC(=O)/C(C#N)=C/c1c(N2CCN(c3ccc(OC)cc3)CC2)nc2c(C)cccn2c1=O,> 50 µM (inactive)
11,CCc1ccc(CNc2ccc3c(c2)ncn3CC)cc1,> 50 µM (inactive)
12,CCOC(=O)/C(C#N)=C\c1ccc(N2CCN(C)CC2)cc1,15 µM
13,CSc1nc(-c2ccc(N(C)C)cc2)c(C#N)c(=O)n1C,> 50 µM (inactive)
14,Cc1ccc2cc(C#N)c(N3CCCC3)nc2c1C,> 50 µM (inactive)
15,CCc1ccc(C(=O)c2cc3ccc(O)cc3oc2=O)cc1,11.7 µM
16,CCC(C)OC(=O)C[N+](C)(C)CCOC1CC2CCC1(C)C2(C)C (stereo unspecified),> 50 µM (inactive)
17,COc1ccc(N2C(=O)N3[C@H](c4ccc(Br)cc4)[C@@H]4C(=O)N(C(C)(C)C)C(=O)[C@@H]4[C@]3(Cc3ccccc3)C2=O)cc1,> 50 µM (inactive)
18,COc1cccc(-c2coc3c(C)c4oc(=O)c(CC(=O)O)c(C)c4cc23)c1,> 50 µM (inactive)
19,O=c1[nH]c(=O)n(-c2cccc3ccccc23)c(O)c1/C=N/N1CCCCCC1,> 50 µM (inactive)
20,OCCNc1nc(-c2ccccc2)nc2ccccc12,> 50 µM (inactive)
21,O=C(CN1CC(=O)Oc2ccccc21)NCc1ccco1,> 50 µM (inactive)
22,Cc1cccc(CN2CCc3c(OCC(=O)N4CCCc5ccccc54)cccc3C2=O)c1,> 50 µM (inactive)
23,COc1ccc(CNc2ccc3c(c2)ncn3-c2ccccc2OC)cc1,> 50 µM (inactive)
